Data reported in US20210121438A1, “METHODS FOR TREATING OR PREVENTING CONFORMATION DISEASES AND METHODS FOR DRUG SCREENING” (GARAGE BRAIN SCIENCE CO., LTD, priority 2018, published 2021).

How the values were obtained:
TDP-43 polymers = target: T1, TDP-43 polymers (Homo sapiens, UniProt Q13148); assay: Western blotting of TDP-43 polymers in nuclear, cytosolic and urea fractions; assay type: cell-based
T1 construct: endogenous in cells; host or cells: 293T
Description: Solubility Assay of TDP-43 and p53: Cells with or without transfection of TDP-43-FL or TDP-43-Q303P were lysed with RIPA buffer (50 mM Tris, 150 mM NaCl, 1 mM EDTA, 1% NP-40, pH 7.4), and the lysate was further fractionated by centrifugation at 16,000 g for 5 min at 4° C. The insoluble pellets were then dissolved in 8 M urea/50 mM Tris (pH 8.0). The proteins were identified by Western blotting using a polyclonal TDP-43 antibody or a monoclonal p53 antibody.
TDP-43 proteinopathies in FTLD/ALS with the VCP/97 mutation R155H have been characterized. The VCP/97 mutation R155H alters the functions of VCP/97, redistributes TDP-43 to the cytosol, and leads to form-insoluble aggregates of TDP-43.

SMNA7 protein = target: T2, SMNA7 protein (Homo sapiens, UniProt Q16637); assay: SMNA7 protein degradation (Western blotting); assay type: cell-based; details: baicalein
T2 construct: expressed in transfected cells
Text: (§1) We investigate whether baicalein can act as a pharmacological chaperone to refold misfolded SMNA7 into a functional prion-like domain, as shown in FIG. 8 (FIG. 10a). […] PFN1 is a known SMN interactor in the cytosol. We further examined whether baicalein attenuated the degradation of the SMNA7 protein. […] We found baicalein increased the length of axons from NSC34 cells expressing SMNA7 by approximately 2-fold (FIG. 10g).

PFN1 and SMNA7 = target: T3, PFN1 and SMNA7 (Homo sapiens, UniProt Q16637); assay: Co-immunoprecipitation of PFN1 and SMNA7; assay type: cell-based; details: in the presence of baicalein
T3 construct: expressed in transfected cells
Text: as §1

[1] = system: p53 aggregates in 293T cells; assay: p53 aggregates in 293T cells / p53 strains (immunofluorescence with p53 antibody); assay type: cell-based; details: 293T cells
Description: Immunohistochemistry: Fluorescence staining was performed as described previously (Wang et al., 2012). Cells were transfected with or without plasmids or siRNAs and grown for 24 to 48 hr. Cells were fixed with 3.7% paraformaldehyde in PBS at RT for 15 min and then permeabilized with 0.1% Triton X-100. The fixed cells were incubated with primary antibodies at RT for 2 hr followed by incubation with Cy2- or Cy3-labeled secondary antibodies (Molecular Probes). Slides were mounted using Vectashield DAPI H-1200 (Vector). Cellular fluorescence images were collected using an LSM710 META laser-scanning confocal microscope (Zeiss).
We observed a striking degree of heterogeneity among p53 aggregates in the cytosol of 293T cells by immunofluorescence with a p53 antibody, including long fibers (5-10 μm), short fibers (1.6-3.2 μm) and punctate aggregates (0.5-1 μm in diameter) (FIG. 16a, arrows). The length of the p53 fibers and p53 aggregates were analyzed (FIG. 16b). […] To determine whether these heterogeneous p53 amyloid patterns are inherited or are random conversions, we subcultured and isolated single colonies from heterogeneous pools of cells. […] We obtained four phenotypes shown in FIG. 16a, including long and short fibers, puncta, and diffuse nuclear staining, and these phenotypes were stably propagated (FIG. 16e). We termed these p53 phenotypes of the isolated strains as follows: p53 [L] (Long fibers), p53 [S] (Short fibers), p53 [P] (Puncta) and p53-NVA (No Visible Aggregates).
Additionally, we treated 293T cells with an Aβ amyloid disassembling agent, baicalein, following immunofluorescence staining with anti-p53 antibodies.

[2] = system: SMNA7 aggregates in 293T cells; assay: SMNA7 aggregate formation in 293T cells; assay type: cell-based
Text: as §1

[3] = system: progeria-expressing cells; assay: Nuclear shape in progeria-expressing cells (anti-lamin A/C immunostaining); assay type: cell-based; details: progeria-expressing cells (HGPS model)
SMNA7-expressing cells = assay: Cell viability assay of SMNA7-expressing cells; assay type: cell-based; details: 50 μM baicalein
Text: as §1

[4] = target: T4, full-length TDP-43 recombinant protein (Homo sapiens, UniProt Q13148); assay: In vitro analysis of TDP-43 fiber formation (negative staining electron microscopy); assay type: biochemical
T4 construct: Three-micromolar full-length TDP-43 recombinant protein (GenWay); purchased GenWay

[5] = system: GFP-TDP-43-IIPLD inclusion-expressing 293T cells; assay: TDP-43-IIPLD misfolded aggregates in transfected 293T cells (microscopy); assay type: cell-based
Description: Cell Culture and Drug Treatment: 293T cells were used throughout the experimental studies. 293T cells were grown in Dulbecco's modified Eagle's medium (DMEM)/F12, which was supplemented with 10% fetal bovine serum, 1% penicillin/streptomycin and 1% L-glutamate. Primary cultures of rat hippocampal neurons were prepared from embryonic day 17 rat embryos as previously described by (Wang et al, TDP-43, the signature protein of FTLD-U, is a neuronal activity-responsive factor. J. Neurochem. 105, 79T-806 (2008)). All procedures for handling the rat were carried out in accordance with the guidelines approved by the Institutional Animal Care and Utilization Committee, Academia Sinica. Hippocampal cells were plated on poly-1-lysine-coated coverslides at low density (10,000 cells per cm2) and cultured in the neurobasal medium/B27 (Invitrogen). The 293T cells were transfected using the calcium phosphate protocol according to the manufacturer's instructions and as previously described by Wang et al. (Wang et al., ProcNatlAcadSci USA. 99, 13583-13588 (2002). All of the plasmid constructs were described in Wang et al., Nature Communication, 2012). 293T cells (1×10^5) were seeded in each well of a six-well plate and incubated overnight in a 37° C. incubator with 5% CO2. To determine the effects of off-pathway stabilizers on the reduction of pathological-like aggregates, the cells were treated with baicalein and EGCG for 12, 24, or 48 h with the indicated concentrations (25 or 50 μM).
GFP-TDP-43 pathological-like (GFP-TDP-43-IIPLD) inclusion-expressing 293T cells were treated with or without 50 μM baicalein for 12 h following microscopic analysis and Western blotting validation. […] (FIG. 2c).

T4 sequence (Q13148 whole entry): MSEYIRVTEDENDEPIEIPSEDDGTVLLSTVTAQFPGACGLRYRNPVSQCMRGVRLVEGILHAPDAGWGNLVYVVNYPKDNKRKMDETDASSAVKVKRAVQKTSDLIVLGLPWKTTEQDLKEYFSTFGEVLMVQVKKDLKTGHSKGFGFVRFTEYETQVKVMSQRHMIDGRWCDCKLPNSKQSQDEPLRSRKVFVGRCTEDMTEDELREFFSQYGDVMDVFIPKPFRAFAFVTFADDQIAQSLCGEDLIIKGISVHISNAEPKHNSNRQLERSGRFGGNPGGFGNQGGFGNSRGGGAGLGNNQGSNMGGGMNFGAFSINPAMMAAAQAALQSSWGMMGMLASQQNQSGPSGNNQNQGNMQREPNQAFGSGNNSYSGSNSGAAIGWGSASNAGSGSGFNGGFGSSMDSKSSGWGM
T1 sequence (Q13148 whole entry): as above
T2 sequence (Q16637 1-282 isoform Q16637-3): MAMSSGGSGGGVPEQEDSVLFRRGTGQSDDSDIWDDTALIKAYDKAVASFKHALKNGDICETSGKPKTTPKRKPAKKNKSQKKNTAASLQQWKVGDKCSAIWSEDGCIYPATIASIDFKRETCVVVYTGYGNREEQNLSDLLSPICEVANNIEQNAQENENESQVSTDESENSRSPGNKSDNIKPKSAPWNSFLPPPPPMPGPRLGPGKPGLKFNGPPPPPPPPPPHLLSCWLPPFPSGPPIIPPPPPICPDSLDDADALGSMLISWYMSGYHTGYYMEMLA
T3 sequence (Q16637 1-282 isoform Q16637-3): as above

TDP-43 polymers (TDP-43 polymers; baicalein-treated VCP/p97 R155H cells): increased TDP-43 polymers
SMNA7 degradation (SMNA7 protein): significantly reduced SMNA7 degradation
interactions between PFN1 and SMNA7 (PFN1 and SMNA7): significantly increased
length of baicalein-inducing TDP-43 polymers ([4]; 3 μM TDP-43 with 3 μM baicalein, RT, agitation, 30-90 min, fibers without compound 3 to 10 μm): 0.15-0.9 μm
SMILES: O=c1cc(-c2ccccc2)oc2cc(O)c(O)c(O)c12 [baicalein]
TDP-43 polymers in nuclear fraction (TDP-43 polymers; 293T cells, 0, 25 or 50 μM baicalein): compensatory increase in the nuclear fraction
p53 misfolded aggregates ([1]; 25 μM baicalein): reduced p53 misfolded aggregates
spontaneous aggregation of p53 ([1]; baicalein): suppressed the spontaneous aggregation of p53
formation of SMNA7 aggregates [2]: decreased the formation of SMNA7 aggregates in 293T cells in a dose-dependent manner
nuclear shape defects [3]: corrected nuclear shape defects in HGPS
increase of viability of SMNA7 cells (SMNA7-expressing cells): approximately 2 fold
remodeling of TDP-43 fibers, oligomers or natively unfolded monomers ([4]; equimolar baicalein, time-dependent): efficiently remodeled into ordered TDP-43 polymers
TDP-43-IIPLD aggregates, statistical analysis of dose dependence [5]: dosage-dependent reduction of TDP-43-IIPLD aggregates
assembly of TDP-43-IIPLD proteinaceous nucleating particles ([5]; 50 μM): inhibited the assembly of TDP-43-IIPLD proteinaceous nucleating particles
